From patent US20250059172A1, “INDAZOLE COMPOUND AND PHARMACEUTICAL” (NIPPON SHINYAKU CO., LTD., priority 2021, published 2025)
pIC50: −log10 of the molar value.

Assays:
human mPGES-1 = human mPGES-1 (Homo sapiens (Human), UniProt O14684); assay: mPGES-1 inhibitory activity test; type: biochemical; conditions: for IC50: microsomes of CHO-K1 cells expressing human mPGES-1, PGH2 1 μM, PGE2 by HTRF, read-out: mPGES-1 inhibition (IC50 nM); for inhibition at 0.01 µM: 10 nM test compound; for inhibition at 0.1 µM: 100 nM test compound
Sequence of human mPGES-1 (O14684 whole entry): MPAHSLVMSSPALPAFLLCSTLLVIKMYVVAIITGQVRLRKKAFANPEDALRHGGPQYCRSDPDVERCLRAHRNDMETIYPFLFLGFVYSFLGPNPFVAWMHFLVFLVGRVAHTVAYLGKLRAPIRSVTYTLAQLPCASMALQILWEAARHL
Outline: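 PGE2 formation was quantified by HTRF and reported as percent inhibition at 10 and 100 nM compound or as IC50. The 60-second reaction at 4° C used 1 μM PGH2, after a 20-minute 4° C preincubation of compound (1% DMSO final) with glutathione-supplemented (2.5 mM, pH 7.4) microsomes. The microsomes were from transiently transfected CHO-K1 cells expressing human mPGES-1.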

[1] = tested on: Female Hartley guinea pigs; assay: Suppression of urinary output in a guinea pig model of water-loaded polyuria; type: in vivo; conditions: oral, total urinary output up to 3 hours after water load, relative to vehicle group
Protocol: The water-loaded polyuria model, commonly used as a model for polyuria, was used to evaluate the inhibitory effect of the test compounds on urinary output in the following manner. Female Hartley guinea pigs (Japan SLC Co., Ltd.) were acclimated in a metabolic cage (Natsume Seisakusho Co., Ltd.) in a fasted condition from the evening of one day before the test. On the following day, 20 mL/kg of distilled water was administered orally as a water load, and then the guinea pigs were placed back in the metabolic cage and the total urinary output up to 3 hours after the water load was downloaded into a personal computer via an electronic balance (GX-200, A&D Corporation) and a data collection and analysis system (PowerLab®, ADInstruments), and then analyzed using analyzing software (LabChart®, ADInstruments). Test compounds dissolved in 0.5% methylcellulose solution (vehicle) or vehicle only were administered orally immediately before water loading depending on the kinetics of the compound. Based on the total urinary output at 3 hours after administration of the test compound and vehicle groups, the percentage inhibition of urinary output of the test compound group (%) was calculated relative to the urinary output of the vehicle group.

human A549 cells = assay: Inhibition test of PGE2 production using human A549 cells; type: cell-based; conditions: IL-1β stimulated A549 cells, 24 h, PGE2 by HTRF, read-out: A549 cell inhibition of PGE2 production IC50
Outline: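 A549 cells were preincubated 60 min with compound in RPMI/3% FBS (0.1% DMSO final), then stimulated with IL-1β (5 ng/well) for 24 h at 37°C. PGE2 was measured by HTRF and PGF2a by EIA; activity was normalized to stimulated minus unstimulated controls, and IC50 derived.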

SMILES	IC50 (human mPGES-1) [nM]	pIC50 (human A549 cells)	inhibition at 0.01 µM (human mPGES-1) [%]	inhibition at 0.1 µM (human mPGES-1) [%]	Suppression (%) of urinary output [1] [%]
Cc1ccc(-n2ncc3c(NC(=O)c4cc(CNC(=O)C(C)(C)C)ccc4Cl)cccc32)nn1 [Example 59, 2-Chloro-5-{[(2,2-dimethylpropanoyl)amino]methyl}-N-[1-(6-methylpyridazin-3-yl)-1H-indazol-4-yl]benzamide]	34.2	7.61			21.2
CC(C)(C)C(=O)NCc1ccc(Cl)c(C(=O)Nc2cccc3c2cnn3-c2ccnc(C3CC3)c2)c1.Cl [Example 70, 2-Chloro-N-[1-(2-cyclopropylpyridin-4-yl)-1H-indazol-4-yl]-5-{[(2,2-dimethylpropanoyl)amino]methyl}benzamide hydrochloride]	4.3	9.00			25.1
COc1ccc(-n2ncc3c(NC(=O)c4cc(CNC(=O)C5CCCC5)ccc4Cl)cccc32)cc1C(F)(F)F [Example 262, 2-Chloro-5-{[(cyclopentylcarbonyl)amino]methyl}-N-{1-[4-methoxy-3-(trifluoromethyl)phenyl]-1H-indazol-4-yl}benzamide]		8.70	99	94	
COCC(=O)NCc1ccc(Cl)c(C(=O)Nc2cccc3c2cnn3-c2ccc(OC)c(C(F)(F)F)c2)c1 [Example 265, 2-Chloro-5-{[(methoxyacetyl)amino]methyl}-N-{1-[4-methoxy-3-(trifluoromethyl)phenyl]-1H-indazol-4-yl}benzamide]		8.57	95	100	
COc1ccc(-n2ncc3c(NC(=O)c4cc(CNC(=O)C5CCCC5)ccc4Cl)cccc32)cn1 [Example 270, 2-Chloro-5-{[(cyclopentylcarbonyl)amino]methyl}-N-[1-(6-methoxypyridin-3-yl)-1H-indazol-4-yl]benzamide]		8.46	64	88	
COc1ccc(-n2ncc3c(NC(=O)c4cc(CNC(=O)C5(C(F)(F)F)CC5)ccc4Cl)cccc32)cn1 [Example 271, 2-Chloro-N-[1-(6-methoxypyridin-3-yl)-1H-indazol-4-yl]-5-[({[1-(trifluoromethyl)cyclopropyl]carbonyl}amino)methyl]benzamide]		8.52	50	90	
COc1ccc(-n2ncc3c(NC(=O)c4cc(CNS(=O)(=O)C5CC5)ccc4Cl)cccc32)cn1 [Example 275, 2-Chloro-5-{[(cyclopropylsulfonyl)amino]methyl}-N-[1-(6-methoxypyridin-3-yl)-1H-indazol-4-yl]benzamide]		8.41	66	91	
Cc1cc(-n2ncc3c(NC(=O)c4cc(CNC(=O)C(C)(C)C)ccc4C(F)(F)F)cccc32)cc(C)n1 [Example 283, 5-{[(2,2-Dimethylpropanoyl)amino]methyl}-N-[1-(2,6-dimethylpyridin-4-yl)-1H-indazol-4-yl]-2-(trifluoromethyl)benzamide]		8.72	72	96	
CC(C)(C)C(=O)NCc1ccc(Cl)c(C(=O)Nc2cccc3c2cnn3C2CC2)c1 [Example 284, 2-Chloro-5-{[(2,2-dimethylpropanoyl)amino]methyl}-N-(1-cyclopropyl-1H-indazol-4-yl)benzamide]		8.02	79		
CC(C)(C)C(=O)NCc1ccc(C(F)(F)F)c(C(=O)Nc2cccc3c2cnn3C2CC2)c1 [Example 285, 5-{[(2,2-Dimethylpropanoyl)amino]methyl}-N-(1-cyclopropyl-1H-indazol-4-yl)-2-(trifluoromethyl)benzamide]		8.11	75		

Continued by rising pIC50 (human A549 cells), values first:

IC50 (human mPGES-1) [nM]	pIC50 (human A549 cells)	inhibition at 0.01 µM (human mPGES-1) [%]	inhibition at 0.1 µM (human mPGES-1) [%]	SMILES	Suppression (%) of urinary output [1] [%]
1.5	7.17			Cc1ccc(-n2ncc3c(NC(=O)c4cc(CNC(=O)C(C)(C)C)ccc4C(F)(F)F)cccc32)cn1.Cl [Example 88, 5-{[(2,2-Dimethylpropanoyl)amino]methyl}-N-[1-(6-methylpyridin-3-yl)-1H-indazol-4-yl]-2-(trifluoromethyl)benzamide hydrochloride]	34.5
	8.29	94	97	COc1ccc(-n2ncc3c(NC(=O)c4cc(CNC(=O)C5(O)CC5)ccc4Cl)cccc32)cc1C(F)(F)F [Example 264, 2-Chloro-5-({[(1-hydroxycyclopropyl)carbonyl]amino}methyl)-N-{1-[4-methoxy-3-(trifluoromethyl)phenyl]-1H-indazol-4-yl}benzamide]	
	8.46	62		CC(C)(CO)C(=O)NCc1ccc(Cl)c(C(=O)Nc2cccc3c2cnn3-c2cccc(OC(F)(F)F)c2)c1 [Example 125, 2-Chloro-5-{[(3-hydroxy-2,2-dimethylpropanoyl)amino]methyl}-N-{1-[3-(trifluoromethoxy)phenyl]-1H-indazol-4-yl}benzamide]	58.0
	8.51	72	90	Cc1cc(-n2ncc3c(NC(=O)c4cc(CNC(=O)C5CCCC5)ccc4Cl)cccc32)cc(C)n1 [Example 278, 2-Chloro-5-{[(cyclopentylcarbonyl)amino]methyl}-N-[1-(2,6-dimethylpyridin-4-yl)-1H-indazol-4-yl]benzamide]	
	8.52	68	94	COc1ccc(-n2ncc3c(NC(=O)c4cc(CNC(=O)C(C)(C)C)ccc4C(F)(F)F)cccc32)cn1 [Example 276, 5-{[(2,2-Dimethylpropanoyl)amino]methyl}-N-[1-(6-methoxypyridin-3-yl)-1H-indazol-4-yl]-2-(trifluoromethyl)benzamide]	35.1
3.8	8.68			CC(C)(C)C(=O)NCc1ccc(Cl)c(C(=O)Nc2cccc3c2cnn3-c2ccc(C3CC3)nc2)c1.Cl [Example 69, 2-Chloro-N-[1-(6-cyclopropylpyridin-3-yl)-1H-indazol-4-yl]-5-{[(2,2-dimethylpropanoyl)amino]methyl}benzamide hydrochloride]	57.8
	9.52	89	85	COc1ccc(-n2ncc3c(NC(=O)c4cc(CNC(=O)C5(C(F)(F)F)CC5)ccc4Cl)cccc32)cc1C(F)(F)F [Example 263, 2-Chloro-N-{1-[4-methoxy-3-(trifluoromethyl)phenyl]-1H-indazol-4-yl}-5-[({[1-(trifluoromethyl)cyclopropyl]carbonyl}amino)methyl]benzamide]	
